The values below come from article PMC5640605, “Fructose-1,6-bisphosphate couples glycolytic flux to activation of Ras” (Nature Communications, 2017).

This assay concerns the target T1, Sos1 (Homo sapiens, UniProt Q07889).
T1 construct: catalytic part of Sos1 (residues 564–1049)
T1 sequence (Q07889 564-1049): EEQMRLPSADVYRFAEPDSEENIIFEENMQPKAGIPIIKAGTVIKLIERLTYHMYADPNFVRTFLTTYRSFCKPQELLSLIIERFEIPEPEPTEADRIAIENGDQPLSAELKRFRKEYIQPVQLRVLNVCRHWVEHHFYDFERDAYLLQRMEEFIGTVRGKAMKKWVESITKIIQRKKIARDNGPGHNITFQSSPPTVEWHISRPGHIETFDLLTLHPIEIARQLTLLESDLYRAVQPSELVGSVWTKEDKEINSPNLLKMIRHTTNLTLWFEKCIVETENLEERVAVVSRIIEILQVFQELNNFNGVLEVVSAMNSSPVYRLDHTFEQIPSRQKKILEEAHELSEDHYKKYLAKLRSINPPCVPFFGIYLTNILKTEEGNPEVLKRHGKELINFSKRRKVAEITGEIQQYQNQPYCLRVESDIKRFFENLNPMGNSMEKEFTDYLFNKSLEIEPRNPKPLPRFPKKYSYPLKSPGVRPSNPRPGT
Briefly: fluorescence-based thermal shift assay (SYPRO Orange) with Langmuir Kd fit; supported by BLI of Sos1/H-Ras complex dissociation (KDapp […]). In kind it is binding.

As for `O=P(O)(O)OC[C@H]1OC(O)(COP(=O)(O)O)[C@@H](O)[C@@H]1O` (stereo partly shown) [Fru1,6bisP], the Kd amounted to 17.5 ± 2.2 mM.
